Assay results published in ChEMBL document CHEMBL1157450, “Potent and selective small-molecule human urotensin-II antagonists with improved pharmacokinetic profiles” (Bioorg Med Chem Lett, 2008).
pEC50, pIC50, pKi: −log10 of the molar value. The source made the active and inactive calls. The calls are words filed in the database; no cut-off is given here.

How the values were obtained:
[1] = target: T1, Urotensin-2 receptor (Homo sapiens, UniProt Q9UKP6); experiment: Binding affinity to human urotensin-2 receptor
T1 sequence (Q9UKP6 whole entry): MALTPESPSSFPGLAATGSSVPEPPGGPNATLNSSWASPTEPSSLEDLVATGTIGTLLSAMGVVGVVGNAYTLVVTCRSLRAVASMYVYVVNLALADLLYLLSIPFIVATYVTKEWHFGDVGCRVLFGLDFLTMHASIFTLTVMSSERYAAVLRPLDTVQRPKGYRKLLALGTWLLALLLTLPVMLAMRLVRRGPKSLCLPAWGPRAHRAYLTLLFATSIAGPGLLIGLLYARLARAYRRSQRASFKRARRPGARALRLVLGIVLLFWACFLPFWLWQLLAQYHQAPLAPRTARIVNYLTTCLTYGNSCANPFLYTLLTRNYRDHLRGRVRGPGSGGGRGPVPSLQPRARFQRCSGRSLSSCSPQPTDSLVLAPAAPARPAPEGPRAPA

[2] = target: Cytochrome P450 2D6 (Homo sapiens, UniProt P10635); experiment: Inhibition of CYP2D6; assay type: ADME
Chain of Cytochrome P450 2D6 (P10635 whole entry): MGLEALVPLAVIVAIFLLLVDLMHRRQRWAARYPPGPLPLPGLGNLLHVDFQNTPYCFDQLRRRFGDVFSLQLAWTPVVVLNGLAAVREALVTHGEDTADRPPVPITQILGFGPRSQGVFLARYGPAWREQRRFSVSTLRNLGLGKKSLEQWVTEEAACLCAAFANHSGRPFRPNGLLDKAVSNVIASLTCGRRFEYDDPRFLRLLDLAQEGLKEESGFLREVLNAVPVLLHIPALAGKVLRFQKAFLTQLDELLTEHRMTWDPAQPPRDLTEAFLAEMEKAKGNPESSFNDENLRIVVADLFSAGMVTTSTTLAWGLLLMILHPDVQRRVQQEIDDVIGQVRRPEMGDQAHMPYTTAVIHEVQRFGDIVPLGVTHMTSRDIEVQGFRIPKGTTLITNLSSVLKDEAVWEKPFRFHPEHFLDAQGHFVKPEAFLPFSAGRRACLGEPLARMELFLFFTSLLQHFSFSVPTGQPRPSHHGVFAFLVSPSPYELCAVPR

[3] = Clearance in rat at 2 mg/kg, iv and 4 mg/kg, po; assay type: ADME, organism-based; details: in vivo
[4] = Cmax in rat at 2 mg/kg, iv and 4 mg/kg, po; assay type: ADME, organism-based; details: in vivo
[5] = Volume of distribution at steady state in rat at 2 mg/kg, iv and 4 mg/kg, po; assay type: ADME, organism-based; details: in vivo, read-out: Vdss
[6] = target: Cytochrome P450 3A4 (Homo sapiens, UniProt P08684); experiment: Inhibition of CYP3A4; assay type: ADME
Chain of Cytochrome P450 3A4 (P08684 whole entry): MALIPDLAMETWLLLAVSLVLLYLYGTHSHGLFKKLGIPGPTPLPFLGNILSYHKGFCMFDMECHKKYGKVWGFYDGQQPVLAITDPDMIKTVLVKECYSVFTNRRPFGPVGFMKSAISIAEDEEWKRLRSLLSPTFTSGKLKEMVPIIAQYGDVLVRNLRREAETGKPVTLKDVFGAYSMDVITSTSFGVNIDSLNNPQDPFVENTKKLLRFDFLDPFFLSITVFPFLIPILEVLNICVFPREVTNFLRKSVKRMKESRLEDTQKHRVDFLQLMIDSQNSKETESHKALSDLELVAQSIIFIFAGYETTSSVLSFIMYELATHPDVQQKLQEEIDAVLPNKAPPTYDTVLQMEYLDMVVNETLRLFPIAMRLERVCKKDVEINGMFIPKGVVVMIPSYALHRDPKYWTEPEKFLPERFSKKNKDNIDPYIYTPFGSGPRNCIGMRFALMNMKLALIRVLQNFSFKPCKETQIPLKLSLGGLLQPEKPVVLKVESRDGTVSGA

[7] = (§1) Binding affinity to batrachotoxinin-sensitive rat brain sodium channel
[8] = target: Kappa-type opioid receptor (Homo sapiens, UniProt P41145); experiment: Agonist activity at kappa opioid receptor; assay type: functional
Chain of Kappa-type opioid receptor (P41145 whole entry): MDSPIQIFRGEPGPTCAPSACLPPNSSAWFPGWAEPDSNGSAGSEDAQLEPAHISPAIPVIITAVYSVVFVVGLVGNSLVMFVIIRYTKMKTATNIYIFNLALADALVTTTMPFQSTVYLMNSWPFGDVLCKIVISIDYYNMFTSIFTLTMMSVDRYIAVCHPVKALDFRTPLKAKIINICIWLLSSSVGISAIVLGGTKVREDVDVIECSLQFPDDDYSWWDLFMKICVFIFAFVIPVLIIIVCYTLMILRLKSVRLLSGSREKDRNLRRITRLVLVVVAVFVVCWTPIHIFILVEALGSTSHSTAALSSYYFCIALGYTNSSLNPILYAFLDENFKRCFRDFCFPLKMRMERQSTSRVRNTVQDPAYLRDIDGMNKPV

[9] = Oral bioavailability in rat at 4 mg/kg; assay type: ADME, organism-based; details: in vivo
[10] = Half life in rat at 2 mg/kg, iv and 4 mg/kg, po; assay type: ADME, organism-based; details: in vivo
[11] = organism: Rattus norvegicus; experiment: as §1
[12] = test system: Aorta; experiment: Inhibition of contraction in isolated rat aorta; assay type: functional

Compound	pKi [1]	pIC50 [2]	clearance [3] [mL/min/kg]	Cmax [4] [ng/mL]	Vd [5] [L/kg]	pIC50 [6]	pKi [7]	pEC50 [8]	bioavailability [9] [%]	half-life [10] [h]	Activity [11]	Kb [12] [nM]
CN(C(=O)CN1C(=O)COc2cc(Cl)c(Cl)cc21)[C@@H](CN1CCOCC1)c1ccc(-c2ccccc2)cc1	7.80	4.48	120	200	11	5.04	5.11	6.10	43	2.2	–	–
CN(CC(=O)N(C)[C@@H](CN1CCCC1)c1ccccc1)c1ccc(Cl)c(Cl)c1	7.89	–	–	–	–	–	5.70	8.40	–	–	–	–
COCCN(CC(=O)N(C)C(CN1CCCC1)c1ccc(-c2ccc(C(N)=O)cc2)cc1)c1ccc(Cl)c(Cl)c1 (centres undefined)	8.52	5.21	–	–	–	5.59	4.77	7.00	–	–	–	–
CN(CC(=O)N1CCCC(c2ccccc2)C1CN1CCCC1)c1ccc(Cl)c(Cl)c1 (racemic)	–	–	–	–	–	–	5.60	–	–	–	–	–
CN(CC(=O)N(C)C(CN1CCCC1)c1ccccc1)c1ccc(Cl)c(Cl)c1 (racemic)	7.82	6.80	–	–	–	5.48	–	9.70	–	–	inactive	–
CN(C(=O)CN1C(=O)COc2cc(Cl)c(Cl)cc21)[C@H](CN1CCOCC1)c1ccc(-c2ccccc2)cc1	6.20	4.48	130	230	19	5.38	5.03	7.40	17	2.6	–	–
CNC(=O)c1cccc(-c2ccc(C(CN3CCOCC3)N(C)C(=O)Cn3c(=O)cnc4cc(Cl)c(Cl)cc43)cc2)c1 (centres undefined)	8.40	4.48	36	1100	2	5.30	4.52	5.70	29	1.5	–	–
CN(C(=O)CN1C(=O)COc2cc(Cl)c(Cl)cc21)C(CN1CCOCC1)c1ccc(-c2ccccc2)cc1 (racemic)	7.89	4.48	150	160	23	5.34	4.95	6.49	–	2.4	–	–
CN(C(=O)CN(CC#N)c1ccc(Cl)c(Cl)c1)C(CN1CCCC1)c1ccc(-c2cccc(C(N)=O)c2)cc1 (centres undefined)	9.52	5.46	100	340	20	5.66	4.66	7.49	36	3.4	–	–
CN(CC(=O)N1CCC[C@H](c2ccccc2)[C@@H]1CN1CCCC1)c1ccc(Cl)c(Cl)c1	8.22	–	–	–	–	–	–	5.20	–	–	–	–
CN(C(=O)Cc1ccc(Cl)c(Cl)c1)[C@H](CN1CCCC1)c1ccccc1 [ICI-199,441]	5.40	–	–	–	–	–	–	–	–	–	–	–
CN(CC(=O)N1CCC[C@@H](c2ccccc2)[C@H]1CN1CCCC1)c1ccc(Cl)c(Cl)c1	–	–	–	–	–	–	–	5.70	–	–	–	–
COc1cccc(-c2ccc(C(CN3CCOCC3)N(C)C(=O)CN3C(=O)COc4cc(Cl)c(Cl)cc43)cc2)c1 (centres undefined)	8.30	4.77	140	290	20	6.00	4.66	6.80	30	3.4	–	21
CN(CC(=O)N(C)C(CN1CCOCC1)c1ccc(-c2ccccc2)cc1)c1ccc(Cl)c(Cl)c1 (centres undefined)	6.20	4.80	–	–	–	5.68	< 3.52	5.80	–	–	–	–
CN(CC(=O)N(C)C(CN1CCCC1)c1ccc(-c2ccccc2)cc1)c1ccc(Cl)c(Cl)c1 (centres undefined)	7.70	5.23	–	–	–	5.31	5.92	7.80	–	–	–	–
CC(=O)Nc1ccc(-c2ccc(C(CN3CCOCC3)N(C)C(=O)CN3C(=O)COc4cc(C)c(C)cc43)cc2)cc1 (centres undefined)	8.52	4.52	94	600	2.8	5.19	4.52	6.10	83	1.7	–	–
CN(CC(=O)N(C)[C@H](CN1CCCC1)c1ccccc1)c1ccc(Cl)c(Cl)c1	5.60	–	–	–	–	–	–	10.00	–	–	–	–
CNC(=O)c1cccc(-c2ccc(C(CN3CCOCC3)N(C)C(=O)Cn3c(=O)cnc4cc(C)c(C)cc43)cc2)c1 (centres undefined)	8.22	4.48	60	–	1.7	5.05	4.52	5.40	39	1	–	–
